Measured values from publication PMC3274619 (Bioorganic & medicinal chemistry letters, 2012).

Test: Solubility observed during synthesis and purification
Assay type: physicochemical
Details: cause of yield and purification difficulties

Q: For Cc1nc(N)sc1-c1csc(Nc2cc(N(C)C)ccc2Cl)n1 [compound 15, N^2-(2-chloro-5-(dimethylamino)phenyl)-4′-methyl-[4,5′-bithiazole]-2,2′-diamine], which solubility is on record?
A: The solubility was “poor solubility”.
